Key:
Assay in all cases: radiometric filter-binding kinase assay
[1] = test system: AKT2 (human), P31751 [S474D]
[2] = biological target: BRSK1 (human) (UniProt Q8TDC3); conditions: compound 10.0 µM
[3] = biological target: CAMKK2 (human) (UniProt Q96RR4)
[4] = biological target: CLK2 (human) (UniProt P49760); conditions: compound 10.0 µM
[5] = biological target: CSK (human) (UniProt P41240)
[6] = biological target: CSNK1D (human) (UniProt P48730)
[7] = biological target: DYRK3 (human) (UniProt O43781)
[8] = biological target: EPHA2 (human) (UniProt P29317); conditions: compound 10.0 µM
[9] = biological target: FGFR1 (human) (UniProt P11362); conditions: compound 10.0 µM
[10] = biological target: FLT1 (human) (UniProt P17948); conditions: compound 10.0 µM
[11] = biological target: GSK3B (human) (UniProt P49841)
[12] = biological target: HIPK1 (human) (UniProt Q86Z02); conditions: compound 10.0 µM
[13] = biological target: HIPK3 (human) (UniProt Q9H422)
[14] = biological target: IGF1R (human) (UniProt P08069); conditions: compound 10.0 µM
[15] = biological target: INSR (human) (UniProt P06213); conditions: compound 10.0 µM
[16] = biological target: IRAK4 (human) (UniProt Q9NWZ3); conditions: compound 10.0 µM
[17] = biological target: JAK2 JH1 JH2 (human) (UniProt O60674); conditions: compound 10.0 µM
[18] = test system: LCK (mouse); conditions: accession and sequence are those of the human protein
[19] = biological target: MAP3K1 (human) (UniProt Q13233); conditions: compound 10.0 µM
[20] = biological target: MAP3K7 TAB1 (human) (UniProt Q15750+O43318); conditions: compound 10.0 µM
[21] = biological target: MAPK11 (human) (UniProt Q15759)
[22] = biological target: MAPK14 (human) (UniProt Q16539)
[23] = biological target: MAPK15 (human) (UniProt Q8TD08)
[24] = biological target: MAPKAPK5 (human) (UniProt Q8IW41)
[25] = biological target: MARK1 (human) (UniProt Q9P0L2); conditions: compound 10.0 µM
[26] = biological target: MELK (human) (UniProt Q14680)
[27] = biological target: MINK1 (human) (UniProt Q8N4C8); conditions: compound 10.0 µM
[28] = biological target: NTRK1 (human) (UniProt P04629); conditions: compound 10.0 µM
[29] = biological target: PRKCZ (human) (UniProt Q05513)
[30] = biological target: RIPK2 (human) (UniProt O43353); conditions: compound 10.0 µM
[31] = test system: ROCK2 (rat); conditions: accession and sequence are those of the human protein
[32] = biological target: RPS6KA3 KD1 KD2 (human) (UniProt P51812)
[33] = biological target: SRC (human) (UniProt P12931)
[34] = biological target: STK11 CAB39 STRADA (human) (UniProt Q9Y376+Q7RTN6+Q15831); conditions: compound 10.0 µM
[35] = biological target: TAOK1 (human) (UniProt Q7L7X3); conditions: compound 10.0 µM

Chain of CSK (human) (P41240 whole entry, looked up): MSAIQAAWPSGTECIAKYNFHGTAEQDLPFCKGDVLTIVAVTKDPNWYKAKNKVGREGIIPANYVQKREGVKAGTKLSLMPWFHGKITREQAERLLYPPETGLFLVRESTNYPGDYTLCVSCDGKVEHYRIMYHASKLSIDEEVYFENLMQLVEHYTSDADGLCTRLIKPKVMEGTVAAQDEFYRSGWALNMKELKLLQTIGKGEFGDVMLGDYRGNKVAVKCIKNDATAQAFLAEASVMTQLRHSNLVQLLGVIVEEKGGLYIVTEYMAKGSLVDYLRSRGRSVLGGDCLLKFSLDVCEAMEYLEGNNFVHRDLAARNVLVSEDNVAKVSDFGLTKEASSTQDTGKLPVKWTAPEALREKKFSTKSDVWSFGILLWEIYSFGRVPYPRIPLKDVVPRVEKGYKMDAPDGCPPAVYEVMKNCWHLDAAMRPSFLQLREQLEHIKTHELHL
Chain of GSK3B (human) (P49841 whole entry, looked up): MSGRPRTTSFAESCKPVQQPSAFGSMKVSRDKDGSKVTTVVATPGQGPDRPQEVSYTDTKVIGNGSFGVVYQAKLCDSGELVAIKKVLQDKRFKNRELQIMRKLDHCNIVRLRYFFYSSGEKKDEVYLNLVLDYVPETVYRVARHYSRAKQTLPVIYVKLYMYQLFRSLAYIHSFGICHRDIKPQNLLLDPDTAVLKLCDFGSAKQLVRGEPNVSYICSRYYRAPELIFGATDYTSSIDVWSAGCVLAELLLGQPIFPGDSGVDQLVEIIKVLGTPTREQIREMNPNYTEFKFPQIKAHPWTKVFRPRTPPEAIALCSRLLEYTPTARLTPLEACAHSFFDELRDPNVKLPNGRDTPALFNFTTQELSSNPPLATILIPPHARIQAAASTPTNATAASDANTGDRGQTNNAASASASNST
Chain of AKT2 (human), P31751 [S474D] (P31751 whole entry S474D, looked up): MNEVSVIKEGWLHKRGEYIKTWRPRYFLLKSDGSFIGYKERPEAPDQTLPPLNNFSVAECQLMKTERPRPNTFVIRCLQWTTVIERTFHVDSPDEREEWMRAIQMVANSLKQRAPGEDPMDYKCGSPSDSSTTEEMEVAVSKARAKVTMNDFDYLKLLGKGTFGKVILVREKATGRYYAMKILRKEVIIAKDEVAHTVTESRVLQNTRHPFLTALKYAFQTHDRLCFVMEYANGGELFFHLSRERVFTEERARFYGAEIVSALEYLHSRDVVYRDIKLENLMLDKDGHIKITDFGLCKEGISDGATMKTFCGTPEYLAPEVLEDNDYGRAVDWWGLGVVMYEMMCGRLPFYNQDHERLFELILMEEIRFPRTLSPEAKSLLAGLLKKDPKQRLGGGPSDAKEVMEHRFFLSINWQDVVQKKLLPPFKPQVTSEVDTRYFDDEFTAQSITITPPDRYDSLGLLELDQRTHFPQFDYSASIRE
Chain of PRKCZ (human) (Q05513 whole entry, looked up): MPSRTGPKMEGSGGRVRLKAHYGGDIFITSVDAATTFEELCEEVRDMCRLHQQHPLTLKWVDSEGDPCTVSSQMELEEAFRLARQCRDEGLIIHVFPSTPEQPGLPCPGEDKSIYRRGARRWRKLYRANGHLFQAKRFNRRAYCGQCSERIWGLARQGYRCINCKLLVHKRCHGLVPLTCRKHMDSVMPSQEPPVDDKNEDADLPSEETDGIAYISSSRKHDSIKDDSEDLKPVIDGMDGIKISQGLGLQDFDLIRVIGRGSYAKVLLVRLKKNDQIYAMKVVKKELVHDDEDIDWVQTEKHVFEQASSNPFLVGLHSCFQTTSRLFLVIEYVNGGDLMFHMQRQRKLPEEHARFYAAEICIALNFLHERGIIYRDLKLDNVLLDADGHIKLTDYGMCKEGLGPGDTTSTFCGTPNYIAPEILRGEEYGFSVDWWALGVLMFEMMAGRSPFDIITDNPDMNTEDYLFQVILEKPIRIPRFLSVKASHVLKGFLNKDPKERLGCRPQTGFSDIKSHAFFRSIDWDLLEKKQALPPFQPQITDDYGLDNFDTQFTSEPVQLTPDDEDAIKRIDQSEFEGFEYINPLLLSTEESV
Chain of SRC (human) (P12931 whole entry, looked up): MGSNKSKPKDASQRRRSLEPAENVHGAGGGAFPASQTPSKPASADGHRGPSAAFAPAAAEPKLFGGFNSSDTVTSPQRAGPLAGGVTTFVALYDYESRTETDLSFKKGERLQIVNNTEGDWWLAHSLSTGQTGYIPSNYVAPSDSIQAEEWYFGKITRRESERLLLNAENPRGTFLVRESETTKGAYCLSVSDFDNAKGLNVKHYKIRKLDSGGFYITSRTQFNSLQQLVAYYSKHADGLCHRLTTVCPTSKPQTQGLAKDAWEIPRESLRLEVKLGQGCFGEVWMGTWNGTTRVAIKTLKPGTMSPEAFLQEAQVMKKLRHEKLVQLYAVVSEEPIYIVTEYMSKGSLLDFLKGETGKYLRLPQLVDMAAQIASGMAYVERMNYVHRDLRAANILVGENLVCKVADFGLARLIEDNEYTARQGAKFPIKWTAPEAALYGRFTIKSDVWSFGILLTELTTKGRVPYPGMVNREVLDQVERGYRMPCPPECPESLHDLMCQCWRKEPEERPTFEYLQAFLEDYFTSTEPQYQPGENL
Chain of HIPK3 (human) (Q9H422 whole entry, looked up): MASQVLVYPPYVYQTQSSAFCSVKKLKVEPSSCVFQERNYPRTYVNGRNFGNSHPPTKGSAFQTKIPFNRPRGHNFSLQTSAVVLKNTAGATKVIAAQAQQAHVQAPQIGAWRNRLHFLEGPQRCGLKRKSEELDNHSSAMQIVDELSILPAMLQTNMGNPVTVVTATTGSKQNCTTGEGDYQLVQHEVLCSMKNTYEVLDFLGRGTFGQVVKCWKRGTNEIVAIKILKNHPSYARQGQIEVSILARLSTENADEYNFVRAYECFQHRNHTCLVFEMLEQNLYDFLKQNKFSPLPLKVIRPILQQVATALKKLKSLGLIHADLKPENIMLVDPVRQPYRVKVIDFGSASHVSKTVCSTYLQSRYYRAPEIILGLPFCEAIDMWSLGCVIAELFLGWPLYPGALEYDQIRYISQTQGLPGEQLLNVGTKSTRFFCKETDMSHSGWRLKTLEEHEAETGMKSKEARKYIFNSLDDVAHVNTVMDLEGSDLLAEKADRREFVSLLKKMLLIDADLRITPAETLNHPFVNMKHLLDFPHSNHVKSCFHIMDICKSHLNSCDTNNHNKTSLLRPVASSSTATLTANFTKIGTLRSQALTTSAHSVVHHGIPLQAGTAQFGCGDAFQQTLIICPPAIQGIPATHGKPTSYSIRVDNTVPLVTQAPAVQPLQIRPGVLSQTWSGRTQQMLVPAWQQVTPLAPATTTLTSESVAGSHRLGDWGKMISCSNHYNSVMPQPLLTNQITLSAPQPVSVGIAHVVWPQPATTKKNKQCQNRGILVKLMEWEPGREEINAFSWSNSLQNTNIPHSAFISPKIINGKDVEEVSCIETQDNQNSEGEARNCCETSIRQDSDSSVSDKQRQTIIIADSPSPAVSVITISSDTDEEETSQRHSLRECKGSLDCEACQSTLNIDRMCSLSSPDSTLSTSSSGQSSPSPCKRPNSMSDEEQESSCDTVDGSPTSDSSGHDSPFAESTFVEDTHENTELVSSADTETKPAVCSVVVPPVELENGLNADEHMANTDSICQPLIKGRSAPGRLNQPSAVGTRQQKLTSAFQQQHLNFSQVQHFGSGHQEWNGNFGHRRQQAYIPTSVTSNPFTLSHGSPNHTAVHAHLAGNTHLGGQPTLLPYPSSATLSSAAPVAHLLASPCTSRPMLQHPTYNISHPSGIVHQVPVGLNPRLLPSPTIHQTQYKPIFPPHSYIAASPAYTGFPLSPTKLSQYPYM
Chain of MAPK11 (human) (Q15759 whole entry, looked up): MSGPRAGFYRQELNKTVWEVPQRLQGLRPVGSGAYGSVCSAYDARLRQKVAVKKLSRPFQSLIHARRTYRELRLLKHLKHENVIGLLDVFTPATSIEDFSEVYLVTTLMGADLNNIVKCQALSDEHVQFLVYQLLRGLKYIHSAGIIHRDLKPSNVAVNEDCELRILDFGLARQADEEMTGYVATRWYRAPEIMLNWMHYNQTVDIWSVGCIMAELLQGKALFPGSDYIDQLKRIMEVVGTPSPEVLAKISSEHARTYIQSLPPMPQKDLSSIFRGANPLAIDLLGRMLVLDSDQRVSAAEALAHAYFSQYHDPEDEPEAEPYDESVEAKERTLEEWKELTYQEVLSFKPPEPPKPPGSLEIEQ
Chain of CSNK1D (human) (P48730 whole entry, looked up): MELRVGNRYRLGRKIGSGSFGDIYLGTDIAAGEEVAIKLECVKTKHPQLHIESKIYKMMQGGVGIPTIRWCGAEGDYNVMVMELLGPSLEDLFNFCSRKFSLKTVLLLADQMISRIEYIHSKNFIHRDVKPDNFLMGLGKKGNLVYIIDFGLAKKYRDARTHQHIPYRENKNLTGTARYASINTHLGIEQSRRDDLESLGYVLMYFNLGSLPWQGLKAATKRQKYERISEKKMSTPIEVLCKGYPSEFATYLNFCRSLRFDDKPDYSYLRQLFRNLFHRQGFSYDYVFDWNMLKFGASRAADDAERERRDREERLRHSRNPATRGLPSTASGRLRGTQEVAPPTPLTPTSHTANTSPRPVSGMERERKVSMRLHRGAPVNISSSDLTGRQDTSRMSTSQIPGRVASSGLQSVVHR
Chain of MAPKAPK5 (human) (Q8IW41 whole entry, looked up): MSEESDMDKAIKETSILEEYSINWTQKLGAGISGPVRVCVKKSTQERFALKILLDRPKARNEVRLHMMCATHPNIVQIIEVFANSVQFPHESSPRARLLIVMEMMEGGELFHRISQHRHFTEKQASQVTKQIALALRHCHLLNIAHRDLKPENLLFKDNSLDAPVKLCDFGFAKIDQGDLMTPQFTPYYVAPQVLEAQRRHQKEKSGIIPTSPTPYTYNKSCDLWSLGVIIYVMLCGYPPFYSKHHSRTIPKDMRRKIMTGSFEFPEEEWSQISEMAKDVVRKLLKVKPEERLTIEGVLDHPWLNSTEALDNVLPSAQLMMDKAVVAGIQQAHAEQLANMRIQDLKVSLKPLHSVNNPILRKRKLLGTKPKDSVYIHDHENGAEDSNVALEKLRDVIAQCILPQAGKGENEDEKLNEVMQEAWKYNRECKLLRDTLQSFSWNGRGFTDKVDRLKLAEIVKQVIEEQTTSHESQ

Oc1ccc(/C=C/c2cc(O)cc(O)c2)cc1
residual activity ([1]; compound 1.0 µM): 108%
residual activity ([1]; compound 10.0 µM): 67%
residual activity ([1]; compound 50.0 µM): 76%
residual activity [2]: 56%
residual activity ([3]; compound 1.0 µM): 107%
residual activity ([3]; compound 10.0 µM): 74%
residual activity ([3]; compound 50.0 µM): 28%
residual activity [4]: 55%
residual activity ([5]; compound 1.0 µM): 102%
residual activity ([5]; compound 10.0 µM): 87%
residual activity ([5]; compound 50.0 µM): 68%
residual activity ([6]; compound 1.0 µM): 84%
residual activity ([6]; compound 10.0 µM): 94%
residual activity ([6]; compound 50.0 µM): 46%
residual activity ([7]; compound 1.0 µM): 38%
residual activity ([7]; compound 10.0 µM): 8%
residual activity ([7]; compound 50.0 µM): 2%
residual activity [8]: 81%
residual activity [9]: 85%
residual activity [10]: 51%
residual activity ([11]; compound 1.0 µM): 100%
residual activity ([11]; compound 10.0 µM): 80%
residual activity ([11]; compound 50.0 µM): 37%
residual activity [12]: 48%
residual activity ([13]; compound 1.0 µM): 93%
residual activity ([13]; compound 10.0 µM): 41%
residual activity ([13]; compound 50.0 µM): 12%
residual activity [14]: 59%
residual activity [15]: 50%
residual activity [16]: 73%
residual activity [17]: 27%
residual activity ([18]; compound 1.0 µM): 115%
residual activity ([18]; compound 10.0 µM): 97%
residual activity ([18]; compound 50.0 µM): 59%
residual activity [19]: 90%
residual activity [20]: 83%
residual activity ([21]; compound 1.0 µM): 112%
residual activity ([21]; compound 10.0 µM): 93%
residual activity ([21]; compound 50.0 µM): 108%
residual activity ([22]; compound 1.0 µM): 95%
residual activity ([22]; compound 10.0 µM): 97%
residual activity ([22]; compound 50.0 µM): 75%
residual activity ([23]; compound 1.0 µM): 36%
residual activity ([23]; compound 10.0 µM): 10%
residual activity ([23]; compound 50.0 µM): 12%
residual activity ([24]; compound 1.0 µM): 105%
residual activity ([24]; compound 10.0 µM): 85%
residual activity ([24]; compound 50.0 µM): 56%
residual activity [25]: 96%
residual activity ([26]; compound 1.0 µM): 49%
residual activity ([26]; compound 10.0 µM): 50%
residual activity ([26]; compound 50.0 µM): 8%
residual activity [27]: 66%
residual activity [28]: 67%
residual activity ([29]; compound 1.0 µM): 128%
residual activity ([29]; compound 10.0 µM): 105%
residual activity ([29]; compound 50.0 µM): 99%
residual activity [30]: 51%
residual activity ([31]; compound 1.0 µM): 125%
residual activity ([31]; compound 10.0 µM): 83%
residual activity ([31]; compound 50.0 µM): 21%
residual activity ([32]; compound 1.0 µM): 77%
residual activity ([32]; compound 10.0 µM): 72%
residual activity ([32]; compound 50.0 µM): 18%
residual activity ([33]; compound 1.0 µM): 108%
residual activity ([33]; compound 10.0 µM): 81%
residual activity ([33]; compound 50.0 µM): 47%
residual activity [34]: 69%
residual activity [35]: 32%
